Source: BindingDB's records for doi:10.7270/Q21V5CBG (NMMLSC, 2007)
pKi: −log10 of the molar value.

What follows are compounds tested against T1, fMet-Leu-Phe receptor (Homo sapiens, UniProt P21462) (assay: human FPR1 ligand displacement potency – cell-based, flow cytometry, IC50, selectivity assay for FPRL1 ligand SAR project, dose response (AID 762)).
T1 sequence (P21462 whole entry): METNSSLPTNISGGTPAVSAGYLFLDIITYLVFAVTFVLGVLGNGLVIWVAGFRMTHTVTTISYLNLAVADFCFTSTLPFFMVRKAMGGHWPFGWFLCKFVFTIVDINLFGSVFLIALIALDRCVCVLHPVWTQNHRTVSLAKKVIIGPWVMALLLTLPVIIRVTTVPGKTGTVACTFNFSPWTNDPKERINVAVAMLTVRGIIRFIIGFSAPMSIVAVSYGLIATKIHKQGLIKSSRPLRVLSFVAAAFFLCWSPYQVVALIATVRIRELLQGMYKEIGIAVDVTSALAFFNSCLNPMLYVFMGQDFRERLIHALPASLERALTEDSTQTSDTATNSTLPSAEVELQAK

SMILES | pKi
O=C(N1CCN(c2nc(-c3ccccc3)c3ccccc3n2)CC1)C(F)(F)F [2,2,2-trifluoro-1-[4-(4-phenyl-2-quinazolinyl)-1-piperazinyl]ethanone] | < 4.42
COc1ccc(-c2cc(C(F)(F)F)nc(N3CCN(C(c4ccccc4)c4ccccc4)CC3)n2)cc1OC [2-(4-benzhydrylpiperazin-1-yl)-4-(3,4-dimethoxyphenyl)-6-(trifluoromethyl)pyrimidine] | < 4.57
COc1ccc(-c2cc(C(F)(F)F)nc(N3CCN(Cc4ccccc4)CC3)n2)cc1OC [2-(4-benzylpiperazin-1-yl)-4-(3,4-dimethoxyphenyl)-6-(trifluoromethyl)pyrimidine] | < 4.50
COc1ccc(-c2cc(C(F)(F)F)nc(N3CCN(c4ccccc4)CC3)n2)cc1OC [4-(3,4-dimethoxyphenyl)-2-(4-phenyl-1-piperazinyl)-6-(trifluoromethyl)pyrimidine] | < 4.49
CCOC(=O)N1CCN(c2nc(-c3ccc(OC)c(OC)c3)cc(C(F)(F)F)n2)CC1 [4-[4-(3,4-dimethoxyphenyl)-6-(trifluoromethyl)-2-pyrimidinyl]-1-piperazinecarboxylic acid ethyl ester] | < 4.48
COc1ccc(-c2cn3cccnc3n2)cc1NC(=O)C1CC1 [MLS000045944] | < 4.33
COc1ccc(-c2cn3cccnc3n2)cc1NC(=O)C1CCCC1 [MLS000045945] | < 4.36
COc1ccc(CC(=O)Nc2cc(-c3cn4cccnc4n3)ccc2OC)cc1 [N-(5-imidazo[1,2-a]pyrimidin-2-yl-2-methoxy-phenyl)-2-(4-methoxyphenyl)acetamide] | < 4.43
COc1ccc(-c2cn3cccnc3n2)cc1NC(=O)C(C)C [N-(5-imidazo[1,2-a]pyrimidin-2-yl-2-methoxy-phenyl)-2-methyl-propanamide] | < 4.33
CCC(=O)Nc1cc(-c2cn3cccnc3n2)ccc1OC [N-(5-imidazo[1,2-a]pyrimidin-2-yl-2-methoxy-phenyl)propanamide] | < 4.31
